# Data reported in ChEMBL document CHEMBL1201862, “PubChem BioAssay data set” (2004).
# Active and inactive are the calls of the source.
# What was measured:
# [1] = biological target: T1, Heat shock 70 kDa protein 1A (Homo sapiens, UniProt P0DMV8); assay: Hsp70 inhibitors, probe displacement, primary screen, biochemical, fluorescence polarization (AID 583)
# [2] = Luminescence Cell-Based Dose Confirmation HTS to Identify Activators of 5'UTR Stem-Loop Driven Alpha-Synuclein mRNA Translation in H4 Neuroglioblastoma Cells. [Related pubchem assays: 1829 (Project Summary), 1814 (Primary HTS)]; format: functional
# X-box-binding protein 1 = biological target: T2, X-box-binding protein 1 (Homo sapiens, UniProt P17861); format: functional, Cricetulus griseus;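 further: confirmatory dose-response counter-screen serving a CHOP assay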
# T2 sequence (P17861 whole entry): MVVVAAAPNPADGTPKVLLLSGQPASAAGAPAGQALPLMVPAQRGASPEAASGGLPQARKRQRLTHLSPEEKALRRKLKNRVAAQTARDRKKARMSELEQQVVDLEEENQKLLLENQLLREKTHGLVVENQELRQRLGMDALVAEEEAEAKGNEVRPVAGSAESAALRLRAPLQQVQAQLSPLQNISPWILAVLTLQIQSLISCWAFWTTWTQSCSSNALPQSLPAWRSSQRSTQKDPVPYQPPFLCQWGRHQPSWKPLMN
# H4 = assay: Luminescence Cell-Based Dose Response HTS to Identify Activators of 5'UTR Stem-Loop Driven Prion Protein mRNA Translation in H4 Neuroglioblastoma Cells. [Related pubchem assays: 1829 (Project Summary), 1814 (Primary HTS)]; format: functional; settings: Homo sapiens
# [3] = Luminescence Cell-Based Dose Response HTS to Identify Activators of Luciferase Translation or Activity in H4 […] Cells. [Related pubchem assays: 1829 (Project Summary), 1814 (Primary HTS)]; format: functional
# [4] = biological target: T1, Heat shock 70 kDa protein 1A; assay: Hsp70 inhibitors, biochemical, TR-FRET (AID 786)
# [5] = Cytotoxicity screening for potential Inhibitors of Bacterial Capsule Biogenesis. [Related pubchem assays (depositor defined):AID488970]; format: functional
# [6] = growth suppression of PTEN-null colon cells, dose response, cell-based, HCT116 PTEN knockout (AID 1047); format: functional;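 further: HCT116 colon tumor cells with PTEN knocked out; cells exposed to compound for 60 hours before readout; potency for loss of cell viability measured by luminescence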
# [7] = biological target: Protein-tyrosine kinase 2-beta (Homo sapiens, UniProt Q14289);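 further: potency of inhibitors of PYK2 kinase phosphorylation of poly-GT substrate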
# [8] = growth suppression of beta-catenin-knockout colon cells, dose response, cell-based, HCT116, human colon tumor (AID 1045); format: functional;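 further: HCT116 colon tumor cells with beta catenin knocked out; cells exposed to compound for 60 hours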
# HEK293 [9] = assay: cells; settings: Homo sapiens
# [10] = biological target: Nucleotide-binding oligomerization domain-containing protein 2 (Homo sapiens, UniProt Q9HC29); assay: PubChem AID 2334; format: functional
# Nucleotide-binding oligomerization domain-containing protein 2, sequence (Q9HC29 whole entry, the tested form may be a part): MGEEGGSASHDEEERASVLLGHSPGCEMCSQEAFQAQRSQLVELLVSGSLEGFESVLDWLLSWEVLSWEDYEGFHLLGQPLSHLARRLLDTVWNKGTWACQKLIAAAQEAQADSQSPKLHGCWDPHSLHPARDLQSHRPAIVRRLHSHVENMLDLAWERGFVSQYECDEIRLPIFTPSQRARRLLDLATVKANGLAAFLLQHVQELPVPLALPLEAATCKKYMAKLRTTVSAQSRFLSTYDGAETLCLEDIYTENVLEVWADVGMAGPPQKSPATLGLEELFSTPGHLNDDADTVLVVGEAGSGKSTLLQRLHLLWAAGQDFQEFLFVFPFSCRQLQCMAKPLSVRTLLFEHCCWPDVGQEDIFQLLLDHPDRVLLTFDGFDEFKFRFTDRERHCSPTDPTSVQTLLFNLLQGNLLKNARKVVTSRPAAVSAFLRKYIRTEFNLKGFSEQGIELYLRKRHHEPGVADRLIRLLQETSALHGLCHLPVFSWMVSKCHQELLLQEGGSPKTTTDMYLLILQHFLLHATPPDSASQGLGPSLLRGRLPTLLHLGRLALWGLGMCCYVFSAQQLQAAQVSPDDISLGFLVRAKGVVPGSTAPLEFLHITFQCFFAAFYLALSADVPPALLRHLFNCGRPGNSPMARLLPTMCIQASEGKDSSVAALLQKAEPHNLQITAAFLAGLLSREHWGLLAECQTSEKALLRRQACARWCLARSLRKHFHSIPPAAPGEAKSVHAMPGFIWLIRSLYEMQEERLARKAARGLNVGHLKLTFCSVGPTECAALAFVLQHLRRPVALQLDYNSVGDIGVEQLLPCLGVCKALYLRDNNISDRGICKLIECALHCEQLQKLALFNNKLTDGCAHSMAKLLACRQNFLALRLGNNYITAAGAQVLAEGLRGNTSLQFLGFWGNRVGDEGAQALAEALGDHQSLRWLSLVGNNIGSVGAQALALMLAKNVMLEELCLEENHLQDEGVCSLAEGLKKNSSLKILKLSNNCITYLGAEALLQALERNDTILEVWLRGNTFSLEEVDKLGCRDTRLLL
# [11] = biological target: T3, Nucleotide-binding oligomerization domain-containing protein 1 (Homo sapiens, UniProt Q9Y239); assay: NOD1 signaling inhibitors, SAR follow-up, revised (AID 2333); format: functional
# T3 sequence (Q9Y239 whole entry): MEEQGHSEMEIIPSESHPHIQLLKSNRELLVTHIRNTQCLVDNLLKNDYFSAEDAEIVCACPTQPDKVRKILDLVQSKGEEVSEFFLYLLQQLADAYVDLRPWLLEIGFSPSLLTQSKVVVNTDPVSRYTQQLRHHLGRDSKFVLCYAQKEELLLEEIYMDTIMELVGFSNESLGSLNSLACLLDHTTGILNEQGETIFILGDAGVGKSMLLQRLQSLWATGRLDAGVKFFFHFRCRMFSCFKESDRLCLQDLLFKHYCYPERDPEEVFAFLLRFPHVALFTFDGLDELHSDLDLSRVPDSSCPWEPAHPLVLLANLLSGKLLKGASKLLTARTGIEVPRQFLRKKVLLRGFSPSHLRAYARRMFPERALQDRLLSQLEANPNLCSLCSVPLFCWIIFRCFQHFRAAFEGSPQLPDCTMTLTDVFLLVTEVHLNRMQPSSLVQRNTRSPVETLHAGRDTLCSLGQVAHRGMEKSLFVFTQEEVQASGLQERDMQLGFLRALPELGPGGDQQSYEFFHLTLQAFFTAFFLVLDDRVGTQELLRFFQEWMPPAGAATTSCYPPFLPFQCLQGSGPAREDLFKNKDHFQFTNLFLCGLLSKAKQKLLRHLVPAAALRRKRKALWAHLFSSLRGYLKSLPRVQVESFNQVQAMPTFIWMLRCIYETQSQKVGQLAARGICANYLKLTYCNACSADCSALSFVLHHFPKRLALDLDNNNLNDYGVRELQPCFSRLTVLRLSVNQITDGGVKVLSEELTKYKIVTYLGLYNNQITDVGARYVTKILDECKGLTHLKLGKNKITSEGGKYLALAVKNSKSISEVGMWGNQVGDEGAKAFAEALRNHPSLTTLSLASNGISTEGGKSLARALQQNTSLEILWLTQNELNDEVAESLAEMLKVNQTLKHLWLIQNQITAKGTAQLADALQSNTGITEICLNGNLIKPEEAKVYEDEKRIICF
# Tumor necrosis factor = Tumor necrosis factor (Homo sapiens, UniProt P01375); assay: TNFa-triggered NF-kB activation inhibitors, SAR follow-up, cell-based, revised (AID 2337); format: functional
# Tumor necrosis factor, sequence (P01375 whole entry): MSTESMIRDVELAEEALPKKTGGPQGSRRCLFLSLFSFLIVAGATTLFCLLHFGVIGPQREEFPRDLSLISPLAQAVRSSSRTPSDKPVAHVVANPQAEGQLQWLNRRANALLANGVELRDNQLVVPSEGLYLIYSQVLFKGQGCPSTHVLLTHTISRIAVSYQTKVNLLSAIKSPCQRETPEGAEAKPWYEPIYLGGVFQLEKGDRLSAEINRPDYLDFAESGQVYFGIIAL
# Interleukin-8 = Interleukin-8 (Homo sapiens, UniProt P10145); assay: SAR analysis of tumor necrosis factor alpha (TNF-alpha) induced IL-8 secretion in MCF-7/NOD1 cells. [Related pubchem assays (depositor defined):AID1575, AID2250, AID2260]; format: functional, cell-based
# Interleukin-8, sequence (P10145 whole entry): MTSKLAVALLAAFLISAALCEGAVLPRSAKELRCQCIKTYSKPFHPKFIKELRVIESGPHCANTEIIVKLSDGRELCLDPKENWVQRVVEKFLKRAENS
# [12] = biological target: Female germline-specific tumor suppressor gld-1 (Caenorhabditis elegans, UniProt Q17339); assay: inhibitors of GLD-1 binding to TGE RNA, dose response, biochemical, fluorescence polarization, C. elegans (AID 2802);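 further: fluorescence polarization of labeled TGE RNA bound by purified gld-1 protein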
# Female germline-specific tumor suppressor gld-1, sequence (Q17339 whole entry): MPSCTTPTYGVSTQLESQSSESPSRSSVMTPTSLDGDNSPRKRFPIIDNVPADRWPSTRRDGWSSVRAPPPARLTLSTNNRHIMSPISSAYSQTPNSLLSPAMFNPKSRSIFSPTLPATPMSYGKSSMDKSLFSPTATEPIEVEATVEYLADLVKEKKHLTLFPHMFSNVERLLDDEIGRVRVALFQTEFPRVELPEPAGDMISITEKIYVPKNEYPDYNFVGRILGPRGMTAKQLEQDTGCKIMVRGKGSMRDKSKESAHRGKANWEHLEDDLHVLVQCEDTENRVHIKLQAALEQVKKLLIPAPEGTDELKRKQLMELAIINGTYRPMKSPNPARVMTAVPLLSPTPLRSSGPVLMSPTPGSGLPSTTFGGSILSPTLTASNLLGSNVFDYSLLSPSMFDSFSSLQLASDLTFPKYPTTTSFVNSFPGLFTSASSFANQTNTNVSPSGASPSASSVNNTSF
# Protein Rev = Protein Rev (Human immunodeficiency virus type 1 group M subtype B (isolate HXB2)(HIV-1), UniProt P04618); assay: inhibitors of Rev binding to RRE RNA, dose response, biochemical, fluorescence polarization, HIV-1 (AID 434976); set-up: species or system Human immunodeficiency virus 1
# Protein Rev, sequence (P04618 whole entry): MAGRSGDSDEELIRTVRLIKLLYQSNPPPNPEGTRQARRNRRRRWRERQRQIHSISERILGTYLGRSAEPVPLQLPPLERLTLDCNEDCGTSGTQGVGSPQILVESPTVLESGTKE
# HEK293 [13] = assay: Cytotoxicity assay in HEK293 cells. [Related pubchem assays (depositor defined):AID1266, AID1269, AID1270, AID1271, AID1280, AID1281, AID1282, AID1283, AID1287, AID1289, AID1290, AID1291, AID1292, AID1293, AID1294, AID1295, AID1299, AID1302, AID1364, AID1365, AID1366, AID1367, AID1369, AID1370, AID1371, AID1372, AID1373, AID1374, AID1375, AID1384 …; format: functional, cell-based; settings: Homo sapiens
# HEK293 [14] = assay: PMA/Ionomycin induced NF-kB luciferase assay in 293- NF-kB-Luc stable cells. [Related pubchem assays: 1299, 1270, 1295, 1375, 1287, 1281, 1293, 1291, 1289, 1280, 465, 1364, 1282, 1372, 1365, 1370, 1367, 1366, 1269, 1373, 1292, 1290, 1302, 1371, 1283, 1271, 1294, 1374, 1368, 1369 ]; format: functional, cell-based; settings: Homo sapiens
# [15] = biological target: Luciferin 4-monooxygenase (Photinus pyralis, UniProt P08659); assay: In vitro luciferase assay using purified luciferase. [Related pubchem assays: 1299, 1270, 1295, 1375, 1287, 1281, 1293, 1291, 1289, 1280, 465, 1364, 1282, 1372, 1365, 1370, 1367, 1366, 1266, 1373, 1292, 1290, 1302, 1371, 1283, 1271, 1294, 1374, 1368, 1369 ]
# [16] = biological target: T4, Alkaline phosphatase, tissue-nonspecific isozyme (Homo sapiens, UniProt P05186); assay: SAR assay for compounds inhibiting TNAP in the absence of phosphate acceptor performed in a luminescent assay. [Related pubchem assays (depositor defined):AID1548, AID1659, AID518]
# T4 sequence (P05186 whole entry): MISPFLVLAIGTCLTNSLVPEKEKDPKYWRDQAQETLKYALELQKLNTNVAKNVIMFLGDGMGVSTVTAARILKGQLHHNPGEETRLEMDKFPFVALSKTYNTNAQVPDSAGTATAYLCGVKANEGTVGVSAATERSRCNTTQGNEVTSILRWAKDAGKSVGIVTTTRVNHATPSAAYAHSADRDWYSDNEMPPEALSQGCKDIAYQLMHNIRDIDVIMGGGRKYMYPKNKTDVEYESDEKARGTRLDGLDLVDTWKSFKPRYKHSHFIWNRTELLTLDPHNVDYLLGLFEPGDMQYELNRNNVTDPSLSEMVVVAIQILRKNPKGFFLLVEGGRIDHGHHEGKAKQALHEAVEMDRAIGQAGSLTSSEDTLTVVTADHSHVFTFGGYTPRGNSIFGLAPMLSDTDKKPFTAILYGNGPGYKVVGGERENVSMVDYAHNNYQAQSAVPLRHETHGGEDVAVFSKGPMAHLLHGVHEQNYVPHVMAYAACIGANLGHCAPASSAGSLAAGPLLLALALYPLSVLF
# [17] = biological target: T4, Alkaline phosphatase, tissue-nonspecific isozyme; assay: human TNAP enzyme inhibitors, SAR follow-up, biochemical, luminescent, dose response (AID 1056)
# [18] = biological target: Glyceraldehyde-3-phosphate dehydrogenase (Homo sapiens, UniProt P04406)
# [19] = biological target: G-protein coupled receptor 35 (Homo sapiens, UniProt Q9HC97); assay: GPR35 antagonists blocking zaprinast-driven arrestin recruitment, primary screen, imaging, U2OS, beta-arrestin-GFP, zaprinast agonist (AID 2058); format: functional;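 further: antagonist potency meaning inhibition of agonist-induced arrestin redistribution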
# G-protein coupled receptor 35, sequence (Q9HC97 whole entry): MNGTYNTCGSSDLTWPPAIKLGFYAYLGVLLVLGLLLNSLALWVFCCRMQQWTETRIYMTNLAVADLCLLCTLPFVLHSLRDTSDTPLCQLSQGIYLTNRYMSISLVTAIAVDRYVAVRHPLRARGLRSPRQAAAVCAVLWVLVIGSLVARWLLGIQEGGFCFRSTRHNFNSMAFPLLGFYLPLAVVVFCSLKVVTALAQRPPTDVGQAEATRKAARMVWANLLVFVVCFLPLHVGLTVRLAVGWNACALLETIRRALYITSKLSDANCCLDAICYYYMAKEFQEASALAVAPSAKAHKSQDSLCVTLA
# Cysteine protease ATG4B = biological target: T5, Cysteine protease ATG4B (Homo sapiens, UniProt Q9Y4P1); format: functional;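 further: Fluorescence-based dose-response confirmation assay measuring inhibition of ATG4B activity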
# T5 sequence (Q9Y4P1 whole entry): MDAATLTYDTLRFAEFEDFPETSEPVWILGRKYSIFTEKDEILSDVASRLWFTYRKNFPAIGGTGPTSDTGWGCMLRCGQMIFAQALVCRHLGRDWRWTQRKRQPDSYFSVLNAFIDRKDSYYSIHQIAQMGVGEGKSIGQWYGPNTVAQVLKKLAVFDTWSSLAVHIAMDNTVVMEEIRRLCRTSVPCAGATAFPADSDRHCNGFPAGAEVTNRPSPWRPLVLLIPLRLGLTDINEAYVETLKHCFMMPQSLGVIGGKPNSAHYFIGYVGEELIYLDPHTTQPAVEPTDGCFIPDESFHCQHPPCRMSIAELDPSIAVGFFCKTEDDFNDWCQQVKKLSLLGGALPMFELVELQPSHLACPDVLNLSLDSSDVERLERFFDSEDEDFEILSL
# Staphylococcus aureus = assay: Inhibitors of Bacterial Quorum Sensing Structure Activity Relationship (SAR) Analysis: Dose Response Assay. [Related pubchem assays: 700, 527 ]; format: functional, organism-based
# Phospholipase A2 = Phospholipase A2 (Homo sapiens, UniProt P04054); format: functional;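 further: confirmatory dose-response counterscreen on phospholipase A2, testing hits that came from an ultra-high-throughput screen for ATG4B inhibitors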
# Phospholipase A2, sequence (P04054 whole entry): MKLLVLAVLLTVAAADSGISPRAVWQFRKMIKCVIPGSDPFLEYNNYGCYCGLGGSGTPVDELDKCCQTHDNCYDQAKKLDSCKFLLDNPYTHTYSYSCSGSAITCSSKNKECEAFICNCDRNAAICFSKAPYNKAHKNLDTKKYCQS
# Cytochrome P450 2C19 = Cytochrome P450 2C19 (Homo sapiens, UniProt P33261); assay: Cytochrome panel assay with activity outcomes. Panel member name: p450-cyp2c19 Compounds with AC50 equal or less than 10 uM are considered active; format: functional; settings: read-out: AC50
# Cytochrome P450 2C19, sequence (P33261 whole entry): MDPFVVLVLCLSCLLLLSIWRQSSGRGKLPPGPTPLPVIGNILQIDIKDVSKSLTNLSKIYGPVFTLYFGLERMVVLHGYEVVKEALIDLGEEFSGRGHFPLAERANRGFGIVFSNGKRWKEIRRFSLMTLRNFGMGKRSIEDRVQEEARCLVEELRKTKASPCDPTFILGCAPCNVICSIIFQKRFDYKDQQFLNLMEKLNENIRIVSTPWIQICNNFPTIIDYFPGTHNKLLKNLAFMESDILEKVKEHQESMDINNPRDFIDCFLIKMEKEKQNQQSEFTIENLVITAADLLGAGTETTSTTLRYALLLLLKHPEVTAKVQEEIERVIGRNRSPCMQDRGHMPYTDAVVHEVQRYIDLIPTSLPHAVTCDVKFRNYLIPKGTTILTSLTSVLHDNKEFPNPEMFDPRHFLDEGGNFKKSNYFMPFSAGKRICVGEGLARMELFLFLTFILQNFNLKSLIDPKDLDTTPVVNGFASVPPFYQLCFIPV
# Cytochrome P450 3A4 = Cytochrome P450 3A4 (Homo sapiens, UniProt P08684);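 further: CYP3A4 tested as one member of a cytochrome P450 panel screen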
# Cytochrome P450 3A4, sequence (P08684 whole entry): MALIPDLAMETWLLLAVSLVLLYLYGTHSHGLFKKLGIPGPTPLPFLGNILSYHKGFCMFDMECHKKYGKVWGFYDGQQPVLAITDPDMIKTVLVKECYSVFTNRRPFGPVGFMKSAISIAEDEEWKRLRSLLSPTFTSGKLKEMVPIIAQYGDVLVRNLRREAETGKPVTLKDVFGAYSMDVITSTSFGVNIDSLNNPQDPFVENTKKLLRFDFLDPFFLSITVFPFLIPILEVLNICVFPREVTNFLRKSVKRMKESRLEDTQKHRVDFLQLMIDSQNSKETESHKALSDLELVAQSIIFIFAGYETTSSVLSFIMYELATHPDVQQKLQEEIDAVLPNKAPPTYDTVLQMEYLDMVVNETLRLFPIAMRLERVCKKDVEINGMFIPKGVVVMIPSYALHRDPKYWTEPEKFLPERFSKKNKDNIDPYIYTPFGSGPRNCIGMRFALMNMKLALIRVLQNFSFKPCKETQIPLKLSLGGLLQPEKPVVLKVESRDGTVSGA
# [20] = biological target: Signal transducer and activator of transcription 3 (Homo sapiens, UniProt P40763); assay: STAT3 activators, late-stage profile, late-stage follow-up, cell-based, STAT1 reporter, BCL3 qPCR, cytotoxicity, panel member STAT3 Activation (AID 2049)
# Vero = assay: Vero E6 cell cytotoxicity, SAR follow-up, cytotoxicity control for West Nile virus antiviral project, synthesized analogs (AID 2244); format: functional; settings: Chlorocebus sabaeus
# [21] = biological target: Cyclin-dependent kinase 5/CDK5 activator 1 (Homo sapiens, UniProt Q00535); assay: CDK5/p35 kinase inhibitors, dose response, biochemical, cherry-picked samples, set 2 (AID 504545)
# Cyclin-dependent kinase 5/CDK5 activator 1, sequence (Q00535 whole entry): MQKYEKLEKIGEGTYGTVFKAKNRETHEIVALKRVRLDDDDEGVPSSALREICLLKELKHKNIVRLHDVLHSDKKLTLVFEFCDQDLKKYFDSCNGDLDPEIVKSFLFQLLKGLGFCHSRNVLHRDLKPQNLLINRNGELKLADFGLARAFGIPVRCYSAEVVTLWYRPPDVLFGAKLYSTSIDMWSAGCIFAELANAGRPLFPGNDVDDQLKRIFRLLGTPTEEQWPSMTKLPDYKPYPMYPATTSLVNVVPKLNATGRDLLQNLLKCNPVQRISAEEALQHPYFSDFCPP
# Cyclin-dependent kinase 5/CDK5 activator 1, sequence (Q15078 whole entry, further chain): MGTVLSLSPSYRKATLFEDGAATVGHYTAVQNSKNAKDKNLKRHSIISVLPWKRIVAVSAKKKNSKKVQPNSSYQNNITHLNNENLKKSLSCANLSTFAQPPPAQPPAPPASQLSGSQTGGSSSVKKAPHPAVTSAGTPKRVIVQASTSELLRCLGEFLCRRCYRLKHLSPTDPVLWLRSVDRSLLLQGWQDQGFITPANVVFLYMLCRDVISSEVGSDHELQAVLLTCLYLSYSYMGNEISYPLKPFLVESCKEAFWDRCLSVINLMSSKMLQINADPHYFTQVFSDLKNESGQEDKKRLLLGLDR
# T1 sequence (P0DMV8 whole entry): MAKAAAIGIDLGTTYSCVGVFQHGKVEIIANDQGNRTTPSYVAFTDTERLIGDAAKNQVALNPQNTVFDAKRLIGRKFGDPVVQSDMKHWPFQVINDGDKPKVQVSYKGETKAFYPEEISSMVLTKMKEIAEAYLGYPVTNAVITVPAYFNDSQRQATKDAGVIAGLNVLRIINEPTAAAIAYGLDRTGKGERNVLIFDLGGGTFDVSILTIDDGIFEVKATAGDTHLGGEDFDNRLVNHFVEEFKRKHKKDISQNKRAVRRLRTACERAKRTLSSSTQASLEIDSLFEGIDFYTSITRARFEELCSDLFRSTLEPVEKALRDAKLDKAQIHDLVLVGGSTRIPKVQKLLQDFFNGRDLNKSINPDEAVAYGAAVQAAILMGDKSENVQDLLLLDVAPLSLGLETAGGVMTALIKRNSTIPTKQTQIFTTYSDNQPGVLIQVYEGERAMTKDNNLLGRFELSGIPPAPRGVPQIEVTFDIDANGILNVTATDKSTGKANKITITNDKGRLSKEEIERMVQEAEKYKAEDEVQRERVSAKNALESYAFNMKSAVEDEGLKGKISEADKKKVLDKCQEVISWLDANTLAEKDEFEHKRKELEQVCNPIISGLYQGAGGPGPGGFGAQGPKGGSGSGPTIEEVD
smiles,measurement,setting,value
O=C(ONc1ccc(N=NC(=O)c2ccccc2O)cc1)c1ccccc1,IC50,[1],11.7 µM (active)
same,EC50,[2],> 120 µM (not active)
same,Absolute IC50 (XBP1),X-box-binding protein 1,10 µM
same,EC50,H4,28.8 µM (active)
same,EC50,[3],10.1 µM (active)
same,IC50,[4],> 100 µM (not active)
same,CC50,[5],45.1 µM (active)
same,EC50,[6],20 µM (active)
same,IC50,[7],5.49 µM (active)
same,EC50,[8],21.1 µM (active)
O=C(O)c1c(NC(=O)N2CCOCC2)sc2c1CCCC2,IC50,HEK293 [9],> 20 µM (inactive)
same,IC50,[10],> 20 µM (inactive)
same,IC50,[11],1.47 µM (active)
same,IC50,Tumor necrosis factor,> 20 µM (inactive)
same,IC50,Interleukin-8,> 25 µM (inactive)
COc1ccc(/C=C(\CC(=O)O)c2nc3ccccc3s2)cc1O,IC50,[12],2.43 µM (active)
same,IC50,Protein Rev,> 75.4 µM (not active)
COc1ccc(CNC(=O)c2ccc([N+](=O)[O-])o2)cc1,EC50,HEK293 [13],> 8 µM (inactive)
same,EC50,HEK293 [14],4.24 µM (not active)
same,EC50,[15],> 8 µM (not active)
O=C(NCCO)c1cc(-c2ccc(Cl)c(Cl)c2Cl)n[nH]1,IC50,[16],0.00422 µM (active)
same,IC50,[17],0.00744 µM (active)
same,IC50,[18],> 10 µM (inconclusive)
COc1ccc(/C=C\C(=O)NCC(=O)N/N=C/c2ccc(O)cc2O)cc1,IC50,[19],1.16 µM (active)
Cc1c(Cl)cccc1Nc1ccccc1C(=O)O [TOLFENAMIC ACID],IC50,Cysteine protease ATG4B,8.17 µM (active)
same,IC50,Staphylococcus aureus,0.459 µM (active)
same,IC50,Phospholipase A2,7.74 µM (active)
same,AC50,Cytochrome P450 2C19,15.8 µM (inconclusive)
same,AC50,Cytochrome P450 3A4,inconclusive
Nc1c(C(=O)Nc2ccccc2)noc1C(=O)c1ccccc1,EC50,[20],> 55.7 µM (inactive)
COc1ccc(-c2csc(NC(=O)c3ccccc3F)n2)cc1,CC50,Vero,> 40 µM (active)
CC(C)n1cnc2c(Nc3cccc(F)c3)nc(NCCO)nc21,AC50,[21],5.86 µM (active)
